SMILES strings stand for the structures.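 Assay format: 96-well plates, 48-hour exposure. GI50: concentration for 50% inhibition of growth.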 Active and inactive are the calls of the source. Cut-off read from the data, not from the text of the source: active = GI50 up to about 1.1 µM and inactive = higher.

Some test systems named below: UO-31; U-251; T47D; ACHN; SF-268; SR; HOP-92; NCI-H23; OVCAR-4; SNB-75; SF-295; SN12C; RXF 393; HL-60; MDA-MB-231; MDA-N; MDA-MB-435; UACC-257; A498; HOP-62.
What all share (test): growth of human tumour cells (NCI), 48 h

`O=c1c2ccccc2[se]n1-c1cccnc1`: the GI50 in the assay on UO-31 was 35.2 µM (inactive); in the assay with U-251, 26.7 µM (inactive); in the assay with T47D, 21.7 µM (inactive); in the assay on ACHN it was 28.1 µM (inactive); in the assay with SF-268, 27 µM (inactive); in the assay with SR, 34.7 µM (inactive). In addition, the GI50 in the assay with HOP-92 is 15.9 µM (inactive); in the assay on NCI-H23, 21.4 µM (inactive); in the assay on OVCAR-4, 36.2 µM (inactive); with SNB-75, 18.1 µM (inactive); in the assay with SF-295, 31.9 µM (inactive); in the assay on SN12C, 29.6 µM (inactive). Further, the GI50 with RXF 393 is 29.2 µM (inactive); with HL-60 it was 30.1 µM (inactive); in the assay on MDA-MB-231 it was 25.1 µM (inactive); with MDA-N, 22.6 µM (inactive); in the assay on MDA-MB-435, 22.2 µM (inactive); in the assay on UACC-257, 23.4 µM (inactive). Further, the GI50 in the assay on A498 is 24.7 µM (inactive); with HOP-62, 24.9 µM (inactive).

Turning to `CC(=O)c1ccc(Nc2c3ccccc3nc3occc23)cc1`, the GI50 with UO-31 was 0.0196 µM (active); with U-251 it was < 0.0124 µM (active); in the assay with T47D, 0.011 µM (active); with ACHN, < 0.01 µM (active); in the assay on SF-268, < 0.0105 µM (active); with SR it was < 0.01 µM (active). Besides, the GI50 in the assay on HOP-92 is 2.56 µM (inactive); in the assay on NCI-H23, 0.175 µM (active); in the assay with OVCAR-4, < 0.0246 µM (active); with SNB-75 it was 0.0109 µM (active); in the assay on SF-295, < 0.01 µM (active); in the assay on SN12C, 0.0172 µM (active). Also, the GI50 was < 0.01 µM (active) with RXF 393; < 0.01 µM (active) in the assay with HL-60; 0.0194 µM (active) with MDA-MB-231; < 0.01 µM (active) in the assay with MDA-N; < 0.01 µM (active) in the assay on MDA-MB-435; 17.1 µM (inactive) with UACC-257. Besides, the GI50 in the assay with A498 was 2.32 µM (inactive); in the assay on HOP-62, 0.0127 µM (active).

As for `CC(=O)Nc1c(C)cc(OCC(=O)O)cc1C`, the GI50 in the assay on UO-31, in the assay on U-251, with T47D, in the assay on ACHN, in the assay with SF-268 and in the assay with SR was > 100 µM (inactive) in each case. Also, the GI50 in the assay with HOP-92, in the assay with NCI-H23, with OVCAR-4, in the assay on SNB-75, with SF-295 and in the assay with SN12C was > 100 µM (inactive) throughout. The GI50 in the assay with RXF 393, in the assay with HL-60, in the assay with MDA-MB-231, with MDA-N, in the assay with MDA-MB-435 and in the assay on UACC-257 was > 100 µM (inactive) in each case. Further, the GI50 with A498 and with HOP-62 was > 100 µM (inactive) each time.

For `CC(C)=NNc1ncnc2[nH]cnc12`, the GI50 in the assay on UO-31 was 3.21 µM (inactive); in the assay on U-251, 20.4 µM (inactive); in the assay on T47D, 11.2 µM (inactive); with ACHN, 5.7 µM (inactive); with SF-268 it was 7.89 µM (inactive); in the assay on SR it was 4.69 µM (inactive). For the same molecule, the GI50 in the assay with HOP-92 was 16.9 µM (inactive); in the assay with NCI-H23, 29.6 µM (inactive); with OVCAR-4, 9.95 µM (inactive); in the assay on SNB-75, 18.2 µM (inactive); with SF-295 it was 8.55 µM (inactive); with SN12C, 14.5 µM (inactive). Also, the GI50 is 6.87 µM (inactive) in the assay with RXF 393; 3.71 µM (inactive) with HL-60; 6.95 µM (inactive) in the assay on MDA-MB-231; 8.79 µM (inactive) with MDA-N; 6.87 µM (inactive) with MDA-MB-435; 10 µM (inactive) with UACC-257. Besides, the GI50 was 5.07 µM (inactive) in the assay with A498 and 5.12 µM (inactive) in the assay with HOP-62.

Turning to `CN(O)C(=S)c1ccccc1`, the GI50 in the assay with UO-31 was 5.35 µM (inactive); in the assay on U-251, 3.18 µM (inactive); in the assay on T47D, 16.4 µM (inactive); in the assay with ACHN it was 4.42 µM (inactive); in the assay with SF-268, 6.43 µM (inactive); in the assay on SR it was 0.178 µM (active). Also, the GI50 was 5.25 µM (inactive) in the assay with HOP-92; 1.91 µM (inactive) with NCI-H23; 1.88 µM (inactive) in the assay with OVCAR-4; 4.31 µM (inactive) with SNB-75; 3.48 µM (inactive) in the assay on SF-295; 5.18 µM (inactive) in the assay with SN12C. The GI50 in the assay with RXF 393 is 3.19 µM (inactive); in the assay on HL-60, 0.233 µM (active); with MDA-MB-231, 9.33 µM (inactive); in the assay on MDA-N it was 6.95 µM (inactive); with MDA-MB-435, 3.38 µM (inactive); in the assay with UACC-257 it was 13.1 µM (inactive). Further, the values for the GI50 with A498 and with HOP-62 were 20.2 µM (inactive) and 11.4 µM (inactive), respectively.

`CN(C)CCNC(=O)c1cccc2nc3c(nc12)-c1ccccc1C3=O`: the GI50 in the assay with UO-31 was 12.1 µM (inactive); in the assay with U-251, 13.4 µM (inactive); in the assay on T47D it was 12.9 µM (inactive); with ACHN, 4.78 µM (inactive); with SF-268, 11.8 µM (inactive); in the assay with SR, 1.14 µM (inactive). In addition, the GI50 in the assay with HOP-92 was 16.4 µM (inactive); in the assay with NCI-H23, 13.3 µM (inactive); in the assay on OVCAR-4, 20.8 µM (inactive); with SNB-75 it was 13.8 µM (inactive); with SF-295, 17.9 µM (inactive); with SN12C, 11 µM (inactive). Moreover, the GI50 in the assay on RXF 393 is 16.8 µM (inactive); in the assay on HL-60, 6.3 µM (inactive); in the assay on MDA-MB-231 it was 7.89 µM (inactive); in the assay on MDA-N, 9.89 µM (inactive); in the assay on MDA-MB-435 it was 14.8 µM (inactive); with UACC-257, 13.4 µM (inactive). Besides, the values for the GI50 in the assay on A498 and in the assay on HOP-62 were 14.4 µM (inactive) and 6.17 µM (inactive), respectively.

Regarding `O=C1C=CC(=O)[C@H]2C3C=CC(C4C3C3(Cl)C(Cl)=C(Cl)[C@]4(Cl)C3(Cl)Cl)[C@@H]12` (stereo not given in full), the GI50 in the assay with UO-31 is 10.3 µM (inactive); in the assay on U-251, 3.46 µM (inactive); with T47D, 5.48 µM (inactive); in the assay with ACHN, 8.55 µM (inactive); with SF-268, 5.71 µM (inactive); with SR it was 1.66 µM (inactive). For the same molecule, the GI50 in the assay on HOP-92 was 2.18 µM (inactive); in the assay on NCI-H23, 12.6 µM (inactive); with OVCAR-4 it was 4.4 µM (inactive); in the assay with SNB-75, 12.2 µM (inactive); in the assay on SF-295, 12.5 µM (inactive); in the assay on SN12C it was 5.58 µM (inactive). Further, the GI50 in the assay with RXF 393 was 4.17 µM (inactive); in the assay on HL-60 it was 1.57 µM (inactive); in the assay on MDA-MB-231 it was 4.45 µM (inactive); with MDA-N it was 4.52 µM (inactive); in the assay with MDA-MB-435, 2.51 µM (inactive); in the assay with UACC-257, 2.32 µM (inactive). Besides, the values for the GI50 with A498 and with HOP-62 were 16 µM (inactive) and 17.1 µM (inactive), respectively.

With `O=c1c2cc(-c3ccccc3)sc2nc2n1N=C(c1ccc(Cl)cc1)CS2`, the GI50 in the assay with UO-31 was > 100 µM (inactive); in the assay on U-251 it was > 100 µM (inactive); in the assay on T47D it was 57.5 µM (inactive); with ACHN it was > 100 µM (inactive); in the assay on SF-268 it was > 100 µM (inactive); in the assay on SR, > 100 µM (inactive). The GI50 with HOP-92, in the assay on NCI-H23, in the assay with OVCAR-4, with SNB-75, in the assay on SF-295 and in the assay on SN12C was > 100 µM (inactive) in each case. In addition, the GI50 in the assay with RXF 393, in the assay on HL-60, with MDA-MB-231, in the assay on MDA-N, in the assay on MDA-MB-435 and with UACC-257 was > 100 µM (inactive) throughout. Moreover, the GI50 in the assay with A498 and in the assay with HOP-62 was > 100 µM (inactive) throughout.

Take `C1=Cc2nccc3cc4c(c(c23)N1)OCO4`: the GI50 is 6.44 µM (inactive) with UO-31; 13.5 µM (inactive) with U-251; 6.4 µM (inactive) in the assay on T47D; 4.52 µM (inactive) in the assay with ACHN; 8.13 µM (inactive) in the assay on SF-268; 1.28 µM (inactive) in the assay with SR. For the same molecule, the GI50 was 22.3 µM (inactive) with HOP-92; 6.92 µM (inactive) in the assay on NCI-H23; 7.45 µM (inactive) with OVCAR-4; 6.93 µM (inactive) with SNB-75; 3.36 µM (inactive) with SF-295; 4.89 µM (inactive) in the assay on SN12C. For the same molecule, the GI50 was 1.64 µM (inactive) in the assay on RXF 393; > 100 µM (inactive) in the assay with HL-60; 10.3 µM (inactive) with MDA-MB-231; 8.02 µM (inactive) with MDA-N; 12.7 µM (inactive) in the assay on MDA-MB-435; 17.5 µM (inactive) in the assay with UACC-257. In addition, the values for the GI50 in the assay with A498 and in the assay on HOP-62 were 21.6 µM (inactive) and 7.62 µM (inactive), respectively.

In the case of `CC(C)(C)N(Cc1ccccc1)C(=O)/C=C\[S+]([O-])c1ccccc1` (stereo not given), the GI50 in the assay on UO-31 is 2.34 µM (inactive); in the assay with U-251 it was 3.88 µM (inactive); in the assay with T47D it was 4.2 µM (inactive); in the assay on ACHN, 4.71 µM (inactive); with SF-268 it was 2.07 µM (inactive); in the assay with SR, 1.58 µM (inactive). The GI50 is 3.37 µM (inactive) with HOP-92; 2.86 µM (inactive) with NCI-H23; 2.32 µM (inactive) with OVCAR-4; 10.9 µM (inactive) in the assay on SNB-75; 13.4 µM (inactive) in the assay with SF-295; 2.61 µM (inactive) in the assay on SN12C. The GI50 with RXF 393 is 3.8 µM (inactive); in the assay with HL-60 it was 2.1 µM (inactive); in the assay on MDA-MB-231 it was 3.27 µM (inactive); in the assay on MDA-N, 2.16 µM (inactive); with MDA-MB-435, 2.65 µM (inactive); in the assay on UACC-257, 5.08 µM (inactive). The GI50 with A498 was 13.4 µM (inactive); with HOP-62 it was 8.24 µM (inactive).
